What was measured:
osteoclast precursors = assay: cells; format: cell-based; conditions: read-out: Osteoclast assay
Experimental: Osteoclast Tartrate-Resistant Acid Phosphatase Assay
Diluted compound was transferred to a 384-well black clear bottom plate. Two-thousand five hundred osteoclast precursors (Lonza, Walkersville, Md.) were added per well in growth media containing Receptor Activator of Nuclear Factor Kappa-beta ligand (RANKL) and M-CSF (R&D Systems, Minneapolis, Minn.). […] Tartrate-resistant acid phosphatase activity in the supernatant samples was determined using an acid phosphatase assay kit (Sigma, St. Louis, Mo.). Absorbance was measured at 550 nm using a plate reader. Data was analyzed using Prism software (Graphpad, San Diego, Calif.) to calculate IC50 values.

[1] = target: unphosphorylated PDGFRβ kinase (uPDGFRβ, Seq. ID No. 3) (Homo sapiens, UniProt P09619); assay: biochemical; conditions: uPDGFRb, enzymatic assay, ATP 500 μM
Chain of unphosphorylated PDGFRβ kinase (uPDGFRβ, Seq. ID No. 3) (P09619 557-1106): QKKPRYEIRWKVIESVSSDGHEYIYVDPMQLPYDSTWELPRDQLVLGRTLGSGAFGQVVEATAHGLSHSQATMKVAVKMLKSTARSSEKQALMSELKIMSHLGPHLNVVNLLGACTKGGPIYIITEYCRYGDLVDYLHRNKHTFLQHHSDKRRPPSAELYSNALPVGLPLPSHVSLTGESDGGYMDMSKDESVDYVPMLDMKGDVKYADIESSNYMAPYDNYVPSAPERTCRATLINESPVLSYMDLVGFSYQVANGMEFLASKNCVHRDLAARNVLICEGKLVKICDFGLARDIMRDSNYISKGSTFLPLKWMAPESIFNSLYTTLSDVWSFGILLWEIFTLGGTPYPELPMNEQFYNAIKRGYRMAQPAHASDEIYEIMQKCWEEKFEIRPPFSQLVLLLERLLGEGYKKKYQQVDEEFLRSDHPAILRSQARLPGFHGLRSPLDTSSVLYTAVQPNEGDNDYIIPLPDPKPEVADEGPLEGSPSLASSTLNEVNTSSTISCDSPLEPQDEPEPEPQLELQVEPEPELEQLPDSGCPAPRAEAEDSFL
Experimental: Unphosphorylated PDGFRβ (uPDGFRβ) Kinase (Seq. ID No. 3) Assay
In this assay, the oxidation of NADH (thus the decrease at A340 nm) was continuously monitored spectrophometrically. […] The inhibition reaction was started by mixing serial diluted test compound with the above reaction mixture. The absorption at 340 nm was monitored continuously for 4 h at 30° C. on a Polarstar Optima or Synergy 2 plate reader. The reaction rate was calculated using the 1.5 to 2.5 h time frame. Percent inhibition was obtained by comparison of reaction rate with that of a control (i.e. with no test compound). IC50 values were calculated from a series of percent inhibition values determined at a range of inhibitor concentrations using software routines as implemented in the GraphPad Prism software package.

[2] = target: unphosphorylated c-KIT kinase (uKIT, Seq. ID no. 2) (Homo sapiens, UniProt P10721); assay: biochemical; conditions: uKIT, enzymatic assay, ATP 2000 μM
Chain of unphosphorylated c-KIT kinase (uKIT, Seq. ID no. 2) (P10721 with tags, fused parts or gaps): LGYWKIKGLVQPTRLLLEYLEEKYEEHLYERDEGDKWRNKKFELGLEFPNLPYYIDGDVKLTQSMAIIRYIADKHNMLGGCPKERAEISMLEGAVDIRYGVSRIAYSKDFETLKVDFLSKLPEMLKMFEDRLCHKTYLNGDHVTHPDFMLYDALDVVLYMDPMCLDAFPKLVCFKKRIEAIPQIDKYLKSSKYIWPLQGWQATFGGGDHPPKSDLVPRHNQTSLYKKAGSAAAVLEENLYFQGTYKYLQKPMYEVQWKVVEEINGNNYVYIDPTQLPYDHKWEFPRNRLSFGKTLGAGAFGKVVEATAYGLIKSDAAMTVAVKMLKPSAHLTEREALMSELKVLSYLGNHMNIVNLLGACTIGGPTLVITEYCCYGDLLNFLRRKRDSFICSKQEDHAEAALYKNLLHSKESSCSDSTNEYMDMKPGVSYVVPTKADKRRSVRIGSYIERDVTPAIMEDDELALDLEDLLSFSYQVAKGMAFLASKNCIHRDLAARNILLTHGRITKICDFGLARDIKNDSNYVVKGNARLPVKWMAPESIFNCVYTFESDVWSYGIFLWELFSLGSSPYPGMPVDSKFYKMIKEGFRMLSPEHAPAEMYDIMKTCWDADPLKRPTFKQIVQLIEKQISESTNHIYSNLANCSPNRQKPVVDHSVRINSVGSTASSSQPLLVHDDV
Experimental: uKit kinase (Seq. ID No. 2) Assay
In this assay, the oxidation of NADH (thus the decrease at A340 nm) was continuously monitored spectrophometrically. […] The inhibition reaction was started by mixing serial diluted test compound with the above reaction mixture. The absorption at 340 nm was monitored continuously for 4 hours at 30° C. on Synergy 2 plate reader (BioTech).

M-NFS-60 cells = assay: cells; conditions: 67 h, read-out: M-NFS-60 cell proliferation
Experimental: M-NFS-6 Cell Proliferation Assay
A serial dilution of test compound was dispensed into a 384-well black clear bottom plate (Corning, Corning, N.Y.). Two thousand five hundred cells were added per well in 50 μL complete growth medium. […] IC50 values were calculated from a series of percent inhibition values determined at a range of inhibitor concentrations using software routines as implemented in the GraphPad Prism software package.

[3] = target: T1, unphosphorylated c-FMS kinase (uFMS, Seq. ID no. 1) (Homo sapiens, UniProt P07333); assay: biochemical; conditions: uFMS, enzymatic assay, ATP 500 μM
T1 sequence (P07333 538-972): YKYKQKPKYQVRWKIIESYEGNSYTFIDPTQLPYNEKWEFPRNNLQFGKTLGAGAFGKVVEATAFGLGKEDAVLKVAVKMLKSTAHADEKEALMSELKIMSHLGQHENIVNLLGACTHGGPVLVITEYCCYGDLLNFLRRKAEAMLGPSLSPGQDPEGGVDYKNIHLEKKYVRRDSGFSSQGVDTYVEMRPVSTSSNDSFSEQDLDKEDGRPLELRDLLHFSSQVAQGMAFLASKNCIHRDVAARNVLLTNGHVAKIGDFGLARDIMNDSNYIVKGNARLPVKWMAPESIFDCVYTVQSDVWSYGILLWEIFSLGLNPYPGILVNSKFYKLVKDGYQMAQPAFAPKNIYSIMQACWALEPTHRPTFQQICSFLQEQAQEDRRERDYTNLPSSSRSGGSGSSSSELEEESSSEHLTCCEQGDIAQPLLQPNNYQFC
Experimental: In this assay, the oxidation of NADH (thus the decrease at A340 nm) was continuously monitored spectrophometrically. The reaction mixture (100 μL) contained FMS (purchased from Millipore) (10 nM), polyE4Y (1 mg/mL), MgCl2 (10 mM), pyruvate kinase (4 units), lactate dehydrogenase (0.7 units), phosphoenol pyruvate (1 mM), NADH (0.28 mM) and ATP (500 μM) in 90 mM Tris buffer containing 0.2% octyl-glucoside and 1% DMSO, pH 7.5. The inhibition reaction was started by mixing serial diluted test compound with the above reaction mixture. The absorption at 340 nm was monitored continuously for 4 hours at 30° C. on Synergy 2 plate reader. The reaction rate was calculated using the 3 to 4 h time frame. Percent inhibition was obtained by comparison of reaction rate with that of a control (i.e. in the absence of test compound). IC50 values were calculated from a series of percent inhibition values determined at a range of inhibitor concentrations using software routines as implemented in the GraphPad Prism software package.

Row | SMILES | IC50 (osteoclast precursors) [nM] | IC50 [1] [nM] | IC50 [2] [nM] | IC50 [3] [nM] | IC50 (M-NFS-60 cells) [nM]
1 | Cc1nc(NC(=O)NC(=O)C(C)(C)C)ccc1Oc1ccnc(-c2ccc(C3CCN(C)CC3)cc2)c1 [Example 109, N-((6-methyl-5-((2-(4-(1-methylpiperidin-4-yl)phenyl)pyridin-4-yl)oxy)pyridin-2-yl)carbamoyl)pivalamide] | 10 to 100 | 100 to 1000 | 100 to 1000 | < 10 | < 10
2 | Cc1cc(NC(=O)NC(=O)C(C)(C)C)nc(C)c1Oc1ccnc(-c2cnn(C)c2)c1 [Example 116, N-((4,6-dimethyl-5-((2-(1-methyl-1H-pyrazol-4-yl)pyridin-4-yl)oxy)pyridin-2-yl)carbamoyl)pivalamide] | 10 to 100 | 10 to 100 | 10 to 100 | < 10 | 10 to 100
3 | Cc1cc(NC(=O)NC(=O)C2CCOCC2)nc(C)c1Oc1ccnc(-c2cnn(C)c2)c1 [Example 117, N-((4,6-dimethyl-5-((2-(1-methyl-1H-pyrazol-4-yl)pyridin-4-yl)oxy)pyridin-2-yl)carbamoyl)tetrahydro-2H-pyran-4-carboxamide] | 10 to 100 | 100 to 1000 | 10 to 100 | < 10 | 10 to 100
4 | Cc1nc(NC(=O)NC(=O)C(C)(C)C)ccc1Oc1ccnc(-c2ccc(N3CCN(C)CC3)cc2)c1 [Example 118, N-((6-methyl-5-((2-(4-(4-methylpiperazin-1-yl)phenyl)pyridin-4-yl)oxy)pyridin-2-yl)carbamoyl)pivalamide] | 10 to 100 | 100 to 1000 | 10 to 100 | < 10 | 10 to 100
5 | CCC(=O)NC(=O)Nc1ccc(Oc2ccnc(-c3cn(C)cn3)c2)cn1 [Example 138, N-((5-((2-(1-methyl-1H-imidazol-4-yl)pyridin-4-yl)oxy)pyridin-2-yl)carbamoyl)propionamide] | 10 to 100 | > 1000 | > 1000 | 100 to 1000 | 100 to 1000
6 | COC(C)(C)C(=O)NC(=O)Nc1ccc(Oc2ccnc(-c3cnc(C)n3C)c2)cn1 [Example 139, N-((5-((2-(1,2-dimethyl-1H-imidazol-5-yl)pyridin-4-yl)oxy)pyridin-2-yl)carbamoyl)-2-methoxy-2-methylpropanamide] | 10 to 100 | > 1000 | > 1000 | 100 to 1000 | 100 to 1000
7 | CCc1nc(NC(=O)NC(=O)C2(OC)CC2)ccc1Oc1ccnc(-c2cnn(C)c2)c1 [Example 141, N-((6-ethyl-5-((2-(1-methyl-1H-pyrazol-4-yl)pyridin-4-yl)oxy)pyridin-2-yl)carbamoyl)-1-methoxycyclopropanecarboxamide] | 10 to 100 | > 1000 | > 1000 | 10 to 100 | 100 to 1000
8 | COC1(C(=O)NC(=O)Nc2ccc(Oc3ccnc(-c4cnc(C)s4)c3)cn2)CCCC1 [Example 149, 1-methoxy-N-((5-((2-(2-methylthiazol-5-yl)pyridin-4-yl)oxy)pyridin-2-yl)carbamoyl)cyclopentanecarboxamide] | 10 to 100 | 100 to 1000 | 100 to 1000 | < 10 | 10 to 100
9 | COC1(C(=O)NC(=O)Nc2ccc(Oc3ccnc(-c4cnc(C)s4)c3)cn2)CC1 [Example 155, 1-methoxy-N-((5-((2-(2-methylthiazol-5-yl)pyridin-4-yl)oxy)pyridin-2-yl)carbamoyl)cyclopropanecarboxamide] | 10 to 100 | > 1000 | 100 to 1000 | < 10 | 10 to 100
10 | Cc1ncc(-c2cc(Oc3ccc(NC(=O)NC(=O)C4CCOCC4)nc3)ccn2)s1 [Example 156, N-((5-((2-(2-methylthiazol-5-yl)pyridin-4-yl)oxy)pyridin-2-yl)carbamoyl)tetrahydro-2H-pyran-4-carboxamide] | 10 to 100 | > 1000 | 100 to 1000 | 10 to 100 | 100 to 1000
11 | Cc1ncc(-c2cc(Oc3ccc(NC(=O)NC(=O)C4(C)CCOCC4)nc3)ccn2)o1 [Example 163, 4-methyl-N-((5-((2-(2-methyloxazol-5-yl)pyridin-4-yl)oxy)pyridin-2-yl)carbamoyl)tetrahydro-2H-pyran-4-carboxamide] | 10 to 100 | > 1000 | 100 to 1000 | 10 to 100 | 10 to 100

Further lines, with some results ahead:

Row | IC50 (osteoclast precursors) [nM] | IC50 [1] [nM] | IC50 [2] [nM] | IC50 [3] [nM] | SMILES | IC50 (M-NFS-60 cells) [nM]
12 | 10 to 100 | > 1000 | > 1000 | 10 to 100 | COC(C)(C)C(=O)NC(=O)Nc1ccc(Oc2ccnc(-c3ccc(C#N)nc3)c2)c(C)n1 [Example 110, N-((5-((6′-cyano-[2,3′-bipyridin]-4-yl)oxy)-6-methylpyridin-2-yl)carbamoyl)-2-methoxy-2-methylpropanamide] | 100 to 1000
13 | 10 to 100 | > 1000 | > 1000 | 10 to 100 | Cc1cn(-c2cc(Oc3ccc(NC(=O)NC(=O)C(C)C)nc3C)ccn2)cn1 [Example 134, N-((6-methyl-5-((2-(4-methyl-1H-imidazol-1-yl)pyridin-4-yl)oxy)pyridin-2-yl)carbamoyl)isobutyramide] | 100 to 1000
14 | 100 to 1000 | > 1000 | > 1000 | 100 to 1000 | Cc1cn(-c2cc(Oc3ccc(NC(=O)NC(=O)C4CCOC4)nc3C)ccn2)cn1 (stereo not drawn) [Example 136, N-((6-methyl-5-((2-(4-methyl-1H-imidazol-1-yl)pyridin-4-yl)oxy)pyridin-2-yl)carbamoyl)tetrahydrofuran-3-carboxamide] | 100 to 1000
15 | 10 to 100 | > 1000 | 10 to 100 | < 10 | Cc1cn(-c2cc(Oc3cnc(NC(=O)NC(=O)C(C)(C)C)cc3C)ccn2)cn1 [Example 148, N-((4-methyl-5-((2-(4-methyl-1H-imidazol-1-yl)pyridin-4-yl)oxy)pyridin-2-yl)carbamoyl)pivalamide] | < 10
16 | 10 to 100 | 100 to 1000 | 100 to 1000 | 10 to 100 | Cc1cn(-c2cc(Oc3ccc(NC(=O)NC(=O)C4(C)CCOCC4)nc3)ccn2)cn1 [Example 157, 4-methyl-N-((5-((2-(4-methyl-1H-imidazol-1-yl)pyridin-4-yl)oxy)pyridin-2-yl)carbamoyl)tetrahydro-2H-pyran-4-carboxamide] | 100 to 1000
17 | 10 to 100 | 100 to 1000 | 10 to 100 | < 10 | COC1(C(=O)NC(=O)Nc2cc(C)c(Oc3ccnc(-n4cnc(C)c4)c3)cn2)CCCC1 [Example 162, 1-methoxy-N-((4-methyl-5-((2-(4-methyl-1H-imidazol-1-yl)pyridin-4-yl)oxy)pyridin-2-yl)carbamoyl)cyclopentanecarboxamide] | < 10
18 | 10 to 100 | 100 to 1000 | 100 to 1000 | < 10 | COC1(C(=O)NC(=O)Nc2ccc(Oc3ccnc(-c4cc(C)no4)c3)c(C)n2)CCCC1 [Example 166, 1-methoxy-N-((6-methyl-5-((2-(3-methylisoxazol-5-yl)pyridin-4-yl)oxy)pyridin-2-yl)carbamoyl)cyclopentanecarboxamide] | 10 to 100

Reference: US9382228B2 (priority 2013, dated 2016)
